Results published in ChEMBL document CHEMBL3400083, “Effect of the tyrosinase inhibitor (S)-N-trans-feruloyloctopamine from garlic skin on tyrosinase gene expression and melanine accumulation in melanoma cells” (Bioorg Med Chem Lett, 2015).
Calls of active or inactive are those of the source. The calls are words filed in the database; no cut-off is given here.

What was measured:
[1] = Cytotoxicity against mouse B16F10 cells assessed as cell viability at 1.5 uM after 72 hrs by MTT assay (reference value: 99.6 +/- 3.5%); assay type: cell-based, B16-F10; settings: read-out: Activity
[2] = Cytotoxicity against mouse B16F10 cells assessed as cell viability at 3 uM after 72 hrs by MTT assay (reference value: 99.6 +/- 3.5%); assay type: cell-based, B16-F10; settings: read-out: Activity
[3] = Cytotoxicity against mouse B16F10 cells assessed as cell viability at 6 uM after 72 hrs by MTT assay (reference value: 99.6 +/- 3.5%); assay type: cell-based, B16-F10; settings: read-out: Activity
[4] = Cytotoxicity against mouse B16F10 cells assessed as cell viability at 12 uM after 72 hrs by MTT assay (reference value: 99.6 +/- 3.5%); assay type: cell-based, B16-F10; settings: read-out: Activity
[5] = Cytotoxicity against mouse B16F10 cells assessed as cell viability at 24 uM after 72 hrs by MTT assay (reference value: 99.6 +/- 3.5%); assay type: cell-based, B16-F10; settings: read-out: Activity
[6] = Cytotoxicity against mouse B16F10 cells assessed as cell viability at 48 uM after 72 hrs by MTT assay (reference value: 99.6 +/- 3.5%); assay type: cell-based, B16-F10; settings: read-out: Activity
[7] = Cytotoxicity against mouse B16F10 cells assessed as cell viability at 96 uM after 72 hrs by MTT assay (reference value: 99.6 +/- 3.5%); assay type: cell-based, B16-F10; settings: read-out: Activity
[8] = target: T1, Tyrosinase (Mus musculus) (UniProt P11344); assay: Inhibition of tyrosinase in mouse B16F10 cells assessed as reduction in alpha-MSH-induced melanin content at 48 uM (reference value: 98.5 +/- 4.7%); assay type: cell-based; settings: B16-F10
T1 sequence (whole entry): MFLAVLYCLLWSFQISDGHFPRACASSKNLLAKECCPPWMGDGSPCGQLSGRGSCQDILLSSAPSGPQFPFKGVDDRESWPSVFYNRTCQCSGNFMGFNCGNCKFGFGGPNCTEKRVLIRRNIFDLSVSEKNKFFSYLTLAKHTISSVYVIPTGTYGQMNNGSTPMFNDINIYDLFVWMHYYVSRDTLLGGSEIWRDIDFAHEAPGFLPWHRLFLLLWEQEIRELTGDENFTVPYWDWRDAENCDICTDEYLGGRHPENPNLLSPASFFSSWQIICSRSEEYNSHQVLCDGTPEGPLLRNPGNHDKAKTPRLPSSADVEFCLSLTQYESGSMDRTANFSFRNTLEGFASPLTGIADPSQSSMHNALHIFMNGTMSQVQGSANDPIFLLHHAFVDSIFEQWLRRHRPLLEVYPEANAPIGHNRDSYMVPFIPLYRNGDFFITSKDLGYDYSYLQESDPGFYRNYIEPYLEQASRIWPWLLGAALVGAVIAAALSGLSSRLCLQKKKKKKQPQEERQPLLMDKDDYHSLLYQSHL

[9] = target: T1, Tyrosinase (Mus musculus); assay: Inhibition of tyrosinase in mouse B16F10 cells assessed as reduction in alpha-MSH-induced melanin content at 96 uM (reference value: 98.5 +/- 4.7%); assay type: cell-based; settings: B16-F10
[10] = target: T1, Tyrosinase (Mus musculus); assay: (§1) Inhibition of tyrosinase in mouse B16F10 cells assessed as reduction in alpha-MSH-induced melanin content; assay type: cell-based; settings: B16-F10
Tyrosinase [11] = target: T2, Tyrosinase (Mus musculus, UniProt P11344); assay: as §1; assay type: cell-based, B16-F10
T2 sequence (P11344 whole entry): T1 sequence (whole entry)

B16-F10 = assay: Inhibition of tyrosinase mRNA expression in alpha-MSH-stimulated mouse B16F10 cells at 48 to 96 uM incubated for 1 hr prior to alpha-MSH challenge measured after 24 hrs by RT-PCR analysis; assay type: functional, cell-based
[12] = Inhibition of tyrosinase protein expression in alpha-MSH-stimulated mouse B16F10 cells at 48 to 96 uM incubated for 1 hr prior to alpha-MSH challenge measured after 24 hrs by Western blotting analysis; assay type: functional, cell-based; settings: B16-F10
Tyrosinase [13] = target: T3, Tyrosinase (Homo sapiens, UniProt P14679); assay: Inhibition of tyrosinase (unknown origin)
T3 sequence (P14679 whole entry): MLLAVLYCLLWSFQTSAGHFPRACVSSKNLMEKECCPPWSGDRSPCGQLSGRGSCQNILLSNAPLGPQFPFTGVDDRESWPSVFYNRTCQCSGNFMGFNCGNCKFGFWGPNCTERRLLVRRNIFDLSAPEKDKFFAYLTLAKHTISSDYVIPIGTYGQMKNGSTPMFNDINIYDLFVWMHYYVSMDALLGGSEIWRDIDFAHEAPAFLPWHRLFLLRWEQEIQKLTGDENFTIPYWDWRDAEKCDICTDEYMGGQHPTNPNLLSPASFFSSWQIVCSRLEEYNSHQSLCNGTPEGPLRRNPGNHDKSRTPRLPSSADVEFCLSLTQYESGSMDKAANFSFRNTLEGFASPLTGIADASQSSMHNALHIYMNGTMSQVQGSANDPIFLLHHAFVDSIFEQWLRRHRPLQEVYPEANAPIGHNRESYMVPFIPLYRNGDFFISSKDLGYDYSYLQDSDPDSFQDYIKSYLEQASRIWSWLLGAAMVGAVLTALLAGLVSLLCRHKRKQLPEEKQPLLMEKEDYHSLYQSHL

[14] = target: T1, Tyrosinase (Mus musculus); settings: B16-F10, 100 uM
Description: Inhibition of tyrosinase in mouse B16F10 cells assessed as reduction in alpha-MSH-induced melanin content at 100 uM

COc1cc(/C=C/C(=O)NC[C@@H](O)c2ccc(O)cc2)ccc1O
viability at 72 h, 1.5 µM [1]: 102% | viability at 72 h, 3 µM [2]: 105% | viability at 72 h, 6 µM [3]: 97.8% | viability at 72 h, 12 µM [4]: 99.4% | viability at 72 h, 24 µM [5]: 98.3% | viability at 72 h, 48 µM [6]: 97.2% | viability at 72 h, 96 µM [7]: 96% | inhibition [8]: 122% | inhibition [9]: 106% | inhibition [10]: Dose-dependent effect | IC50 (Tyrosinase [11]): > 96 µM | inhibition (B16-F10): Active | inhibition [12]: Active

CC(C)(C)c1cc(O)ccc1O [E319]
IC50 (Tyrosinase [13]): 54.2 µM

OC[C@H]1O[C@@H](Oc2ccc(O)cc2)[C@H](O)[C@@H](O)[C@@H]1O
inhibition [14]: 146%
